Laboratory results: patent US11034698B2, “Pyrazolo[ 1,5a]pyrimidine derivatives as IRAK4 modulators” (priority 2017, dated 2021)

The molecules below were run against human IRAK4 (Homo sapiens (Human), UniProt Q9NWZ3) (assay: IRAK4 kinase inhibition, Transcreener fluorescence polarization (ADP)). Conditions: recombinant full-length His6-IRAK4 1.25 nM; 125 uM ATP; 125 uM peptide; 90 min; ATP Km 642 uM; read-out: IRAK4 Ki.
Assay type: biochemical
Procedure, shortened: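 The enzyme was full-length human IRAK4 with an N-terminal His6 tag, expressed in insect cells. Kinase activity was read as ADP product by Transcreener fluorescence polarization.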

Chain of human IRAK4 (Q9NWZ3 whole entry): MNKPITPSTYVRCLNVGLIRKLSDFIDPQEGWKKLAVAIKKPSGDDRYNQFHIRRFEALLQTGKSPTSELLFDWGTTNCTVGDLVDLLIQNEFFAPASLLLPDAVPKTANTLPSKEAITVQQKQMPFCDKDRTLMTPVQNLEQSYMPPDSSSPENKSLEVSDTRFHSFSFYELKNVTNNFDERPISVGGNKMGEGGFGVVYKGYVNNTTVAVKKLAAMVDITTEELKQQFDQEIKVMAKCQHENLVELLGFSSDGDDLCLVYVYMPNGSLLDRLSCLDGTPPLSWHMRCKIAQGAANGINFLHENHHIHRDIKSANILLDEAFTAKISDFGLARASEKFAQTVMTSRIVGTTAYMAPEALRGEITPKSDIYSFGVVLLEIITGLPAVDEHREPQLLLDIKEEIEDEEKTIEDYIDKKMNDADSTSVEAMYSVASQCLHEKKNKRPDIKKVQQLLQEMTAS

| Compound | Ki |
| --- | --- |
| COc1cc2c(cc1NC(=O)c1cnn3ccc(N)nc13)CC(C)(C)O2 [Example 41, 5-amino-N-(6-Methoxy-2,2-dimethyl-2,3-dihydrobenzofuran-5-yl)pyrazolo[1,5-a]pyrimidine-3-carboxamide] | 4.6 nM |
| CC(C)(O)[C@H](F)CN1Cc2cc(NC(=O)c3cnn4ccc(Cl)nc34)c(N3CCOCC3)cc2C1=O [Example 102, (R)-5-Chloro-N-(2-(2-fluoro-3-hydroxy-3-methylbutyl)-6-morpholino-1-oxoisoindolin-5-yl)pyrazolo[1,5-a]pyrimidine-3-carboxamide] | 6.5 nM |
| Cc1nc[nH]c1CN1CCN(c2cc3c(cc2NC(=O)c2cnn4cccnc24)CC(C)(C)O3)CC1 [Example 8, N-(2,2-Dimethyl-6-(4-((4-methyl-1H-imidazol-5-yl)methyl)piperazin-1-yl)-2,3-dihvdrobenzofuran-5-yl)pyrazolo[1,5-a]pyrimidine-3-carboxamide] | 3.8 nM |
| Cn1cc(Oc2cc3c(cc2NC(=O)c2cnn4cccnc24)CN(C[C@@H](F)C(C)(C)O)C3=O)cn1 [Example 89, (R)-N-(2-(2-Fluoro-3-hydroxy-3-methylbutyl)-6-((1-methyl-1H-pyrazol-4-yl)oxy)-1-oxoisoindolin-5-yl)pyrazolo[1,5-a]pyrimidine-3-carboxamide] | 1.3 nM |
| CN(C)CCN1CCN(c2cc3c(cc2NC(=O)c2cnn4cccnc24)CC(C)(C)O3)CC1 [Example 4, N-(6-(4-(2-(Dimethylamino)ethyl)piperazin-1-yl)-2,2-dimethyl-2,3-dihydrobenzofuran-5-yl)pyrazolo[1,5-a]pyrimidine-3-carboxamide] | 41 nM |
| COc1cc2c(cc1NC(=O)c1cnn3ccc(NCCN)nc13)CC(C)(C)O2 [Example 43, 5-((2-Aminoethyl)amino)-N-(6-methoxy-2,2-dimethyl-2,3-dihydrobenzofuran-5-yl)pyrazolo[1,5-a]pyrimidine-3-carboxamide] | 3.2 nM |
| CC(C)(O)[C@H](F)CN1Cc2cc(NC(=O)c3cnn4cccnc34)c(N3CCN(C4COC4)CC3)cc2C1=O [Example 105, (R)-N-(2-(2-Fluoro-3-hydroxy-3-methylbutyl)-6-(4-(oxetan-3-yl)piperazin-1-yl)-1-oxoisoindolin-5-yl)pyrazolo[1,5-a]pyrimidine-3-carboxamide] | 3.4 nM |
| CC1(C)Cc2cc(NC(=O)c3cnn4cccnc34)c(N3CCN(Cc4[nH]cnc4Cl)CC3)cc2O1 [Example 10, N-(6-(4-((4-Chloro-1H-imidazol-5-yl)methyl)piperazin-1-yl)-2,2-dimethyl-2,3-dihydrobenzofuran-5-yl)pyrazolo[1,5-a]pyrimidine-3-carboxamide] | 2.3 nM |
| O=C(Nc1cc2c(cc1N1CCOCC1)C(=O)N(CCN1CCCC1)C2)c1cnn2cccnc12 [Example 93, N-[6-Morpholino-1-oxo-2-(2-pyrrolidin-1-ylethyl)isoindolin-5-yl]pyrazolo[1,5-a]pyrimidine-3-carboxamide] | 22 nM |
| CCc1nc[nH]c1CN1CCN(c2cc3c(cc2NC(=O)c2cnn4cccnc24)CC(C)(C)O3)CC1 [Example 9, N-[6-[4-[(4-Ethyl-1H-imidazol-5-yl)methyl]piperazin-1-yl]-2,2-dimethyl-3H-benzofuran-5-yl]pyrazolo[1,5-a]pyrimidine-3-carboxamide] | 3.9 nM |
| COc1cc2c(cc1NC(=O)c1cnn3ccc(N(C)C4CC4)nc13)CC(C)(C)O2 [Example 38, 5-(Cyclopropyl(methyl)amino)-N-(6-methoxy-2,2-dimethyl-2,3-dihvdrobenzofuran-5-yl)pyrazolo[1,5-a]pyrimidine-3-carboxamide] | 180 nM |
| Cn1cc(COc2cc3c(cc2NC(=O)c2cnn4cccnc24)CN(C[C@@H](F)C(C)(C)O)C3=O)cn1 [Example 60, (R)—N-(2-(2-Fluoro-3-hydroxy-3-methylbutyl)-6-((1-methyl-1H-pyrazol-4-yl)methoxy)-1-oxoisoindolin-5-yl)pyrazolo[1,5-a]pyrimidine-3-carboxamide] | 1.1 nM |
| CC(C)(O)[C@H](F)CN1Cc2cc(NC(=O)c3cnn4cccnc34)c(OC3CCOCC3)cc2C1=O [Example 85, (R)-N-(2-(2-Fluoro-3-hydroxy-3-methylbutyl)-1-oxo-6-((tetrahydro-2H-pyran-4-yl)oxy)isoindolin-5-yl)pyrazolo[1,5-a]pyrimidine-3-carboxamide] | 1.8 nM |
| CC(C)(O)[C@H](F)CN1Cc2cc(NC(=O)c3cnn4cccnc34)c(O[C@H]3C[C@@H](Cl)C3)cc2C1=O [Example 64, N-[6-(3-Chlorocyclobutoxy)-2-[(2R)-2-fluoro-3-hydroxy-3-methyl-butyl]-1-oxo-isoindolin-5-yl]pyrazolo[1,5-a]pyrimidine-3-carboxamide] | 0.51 nM |
| CC(C)(O)[C@H](F)CN1Cc2cc(NC(=O)c3cnn4cccnc34)c(C#N)cc2C1=O [Example 98, (R)—N-(6-Cyano-2-(2-fluoro-3-hydroxy-3-methylbutyl)-1-oxoisoindolin-5-yl)pyrazolo[1,5-a]pyrimidine-3-carboxamide] | 8.5 nM |
